# Experimental data published in US8609870B2, “Treating various disorders using TrkB agonists” (Emory University, priority 2008, dated 2013).
# Experiments:
# [1] = tested on: C57BL/6J mice; assay: Tone-shock fear conditioning model; assay type: in vivo, mouse
# Procedure: Following a two-day habituation to testing context, wild-type C57Bl/6J mice (N=28, male, 8-10 weeks old) were fear conditioned in eight identical startle response systems (SR-LAB, SDI) consisting of a nonrestrictive Plexiglas cylinder, 5.5 cm in diameter and 13 cm long, mounted on a Plexiglas platform which was located in a ventilated, sound-attenuated chamber. One hour prior to fear conditioning, mice received […] (N=14, 5 mg/kg, i.p.) or vehicle (N=14, 17% DMSO in PBS). Mice then received 5 tone—footshock pairings, with 30 second 12 kHz, 85 dB tones which co-terminated with the footshocks (intensity of 0.5 mA, 0.5 second) with a 5 minute intertrial interval (ITI), after which they were returned to their homecage. 24 and 48 hrs after training, the mice were tested for freezing in rodent modular test chambers with an inside area of 30.5 cm×24.1 cm×21.0 cm. Three minutes after placing the mouse in the test chamber, fifteen 30 second conditioned stimulus (CS) tones with an ITI of 1.5 min were delivered through a high-frequency speaker attached to the side of each chamber. Percentage time spent freezing during the CS presentations was calculated for each mouse using FreezeFrame (Product Number: ACT-100) (Coulbourn Instruments, Whitehall, Pa.).
# To determine whether deoxygeduning would enhance learning in a whole animal model of learning and memory, in which BDNF-dependent TrkB activation was required, a tone-shock fear conditioning model was developed (see FIG. 26). Following habituation to the testing context, 28 adult wild-type, C57BL/6J mice were given systemic injections of deoxygedunin (N=14, 5 mg/kg, i.p.) or vehicle (N=14) 1 hour prior to being subjected to the tone-shock fear conditioning model. […] Mice were then tested, with no additional drug treatment, for cue-conditioned fear in the previously habituated context on the two days following fear acquisition. […] To further explore these effects, individual animals' freezing levels throughout the tone-fear testing sessions were examined. […]
# [2] = tested on: TrkB F616A knockin mice; assay: KA-provoked apoptosis (caspase-3) in TrkB F616A knockin mice; assay type: in vivo, mouse; conditions: TrkB F616A mice, without 1NMPP1
# Procedure: To determine if 1NMPP1 makes neurons treated with an identified active compound vulnerable to KA-provoked neuronal cell death, TrkF616A knockin mice are fed with 1NMPP1 (25 mM) in drinking water one day prior to pharmacological reagent treatment. The next day, the mice are intraperitoneally injected with KA (25 mg/kg), or an identified active compound (5 mg/kg) 4 hours prior to KA injection. The control mice are injected with either KA or an identified active compound alone, or the mice are administered an identified active compound 4 hours before KA. After 4 days, the mice are sacrificed and the brains are homogenized and ultracentrifuged. The supernatant then is employed for SDS-PAGE and immunoblotting analysis.
# […] inversely correlated with TrkB activation by deoxygedunin (FIG. 20, top and middle panels).
# [3] = tested on: hippocampal neurons; assay: Oxygen-glucose deprivation (OGD) apoptosis in hippocampal neurons; assay type: cell-based
structure (smiles),measurement,setting,value
CC(=O)O[C@@H]1C[C@H]2C(C)(C)C(=O)C=C[C@]2(C)[C@H]2CC[C@]3(C)C(=CC(=O)O[C@H]3c3ccoc3)[C@@]21C [deoxygedunin],shock reactivity during fear acquisition training,"[1]; 5 mg/kg i.p. 1 hour prior to conditioning, versus vehicle",no difference
same,average level of tone-dependent conditioned freezing versus vehicle,"[1]; 5 mg/kg i.p. 1 hour prior to training, tested on the two following days",significantly different on both testing days
same,increase in the level of freezing during the first set of CS trials,"[1]; 5 mg/kg i.p., each testing day, versus vehicle",2-3 fold
same,KA-provoked apoptosis,[2],suppressed KA-provoked apoptosis
same,protective effects on hippocampal neurons under OGD,[3]; apoptotic ratio compared to BDNF and DMSO,potent protective effects
same,titration assay under OGD,[3]; dose titration,protects neurons in a dose-dependent manner
